Values after ≈ are worked out from the molar mass of the structure shown.
Experiments:
IRES of EV71 = assay: cells; type: cell-based; conditions: for selective inhibition on IRES-dependent translation without affecting CAP-dependent translation (screening, FIG. 2): Cos-1 cells transfected with EV-71 IRES construct, amantadine 0.1 mg/ml, IFN-α 10 units, stavudine 0.05 mg/ml, 12 hrs
Procedure: (§1) Plasmid PGS-EMCV is constructed by inserting into the plasmid pTriEx-4 (obtained from Novagene) template sequences of two reporter genes (cistrons), i.e., β-galactosidase (β-gal), and secreted human placental alkaline phosphatase (SEAP), with a promoter upstream of the first cistron (i.e., β-gal) and an EMCV-IRES sequence downstream of it, between the first cistron and the second cistron (i.e., SEAP). Plasmid pGS-EV71 and pGS-HCV are prepared in similar manner except an EV71-IRES sequence or a HCV-IRES sequence was used to replace the EMCV-IRES sequence.
(§2) The kidney cells from African green monkey, i.e., Cos-1 cells, were transfected with the bicistronic DNA constructs prepared according to Example 1. The method of transfection is well known in the art. Briefly, a transfecting stock solution was prepared as follows: 1) solution A: 1 μg of the bicistronic DNA constructs of Example 1 was dissolved in serum free culturing medium, with its final volume adjusted to be 50 μl; 2) solution B: 2 μl of lipofectAMINE 2000 (obtained from Invitrogen) was mixed with 50 μl of serum free culturing medium; 3) mixed solution A with solution B. Cos-1 cells (0.5−2×10^5/well, 24 wells) were first incubated with 500 μl of the serum free culturing medium for a period of 20 min, and then 102 μl of the transfecting stock solution prepared above was added. The transfected cells were then return to culture environment (37°C., 5% CO2). After 12 hrs, the culturing medium were replaced by a medium containing fetal bovine serum and antibiotics, the transfected cells were continued to culture for another 12 hrs before used in the following compound screening procedure.
(§3) The candidate compounds prepared according to the methods described above were dissolved in PBS, with stock concentration to be 10 mg/ml. These stock solutions were then diluted to proper ranges according to various screening conditions required.
(§4) Reporter proteins activities, i.e., secreted Human Alkaline Phosphatase (SEAP) and β-galactosidase (β-gal), were measured with BD Great EscApe SEAP Detection kit (Cat. No. K2041-1, available from Clontech) and Luminescent β-gal Detection kit (Cat. No. K2048-1, available from Clontech), respectively, according to the manufacturer's instruction.

IRES of EMCV = assay: Bicistronic pGS-EMCV reporter assay in Cos-1 cells, SEAP activity (IRES-dependent translation); type: cell-based
Procedure: as §1, §2
as §3, with “required. […] Then, the identified tested compound can be used in preparation of a medicament for treating EV or EMCV infection.” for “required.”
as §4

[1] = system: CAP-dependent translation; assay: Bicistronic pGS-EV71 reporter assay in Cos-1 cells, β-gal activity (CAP-dependent translation); type: cell-based, African green monkey
Procedure: as §1
(§5) The kidney cells from African green monkey, i.e., Cos-1 cells, were transfected with the bicistronic DNA constructs prepared according to Example 1. The method of transfection is well known in the art. […]
as §4

[2] = system: CAP-dependent translation; assay: Bicistronic pGS-EMCV reporter assay in Cos-1 cells, β-gal activity (CAP-dependent translation); type: cell-based, African green monkey
Procedure: as §1, §5, §4

EV-71 = EV-71 whole cell antiviral activity; type: cell-based; conditions: Enterovirus A, EV71
IRES of HCV = assay: Bicistronic pGS-HCV reporter assay (IRES of HCV); type: cell-based, HCV (hepatitis C virus); conditions: data not shown
Procedure: as §1, §5, §4

Compound | selective inhibition on IRES-dependent translation without affecting CAP-dependent translation (screening, FIG. 2) (IRES of EV71) | IC50 (IRES of EV71; Enterovirus A, EV71, COS-1, read-out: calculated IC50 for inhibition of IRES-dependent translation of EV71) [µg/mL] | inhibition at 250 µg/mL (IRES of EV71; Enterovirus A, EV71, COS-1, read-out: inhibition of IRES-dependent translation activity) [%] | gene inhibition (EV71-IRES mediated gene expression) (IRES of EV71; dose of about 0.01 mg/ml (FIG. 5A)) [%] | gene inhibition (EV71-IRES mediated gene expression) (IRES of EV71; dose of about 0.25 mg/ml (FIG. 5A)) [%] | effect on SEAP activities (IRES of EV71; pGS-EV71 transfected cells, 0.01 mg/ml to 0.25 mg/ml (FIG. 3B)) | IC50 (IRES of EMCV; Cardiovirus A, COS-1, read-out: calculated IC50 for inhibition of IRES-dependent translation of EMCV) [µg/mL] | inhibition at 250 µg/mL (IRES of EMCV; Cardiovirus A, COS-1, read-out: inhibition of IRES-dependent translation activity) [%] | gene inhibition (EMCV-IRES mediated gene expression) (IRES of EMCV; dose of about 0.05 mg/ml (FIG. 5B)) [%] | gene inhibition (EMCV-IRES mediated gene expression) (IRES of EMCV; dose of about 0.25 mg/ml (FIG. 5B)) [%] | effect on SEAP activities (IRES of EMCV; pGS-EMCV transfected cells, 0.01 mg/ml to 0.25 mg/ml (FIG. 4B)) | effect on CAP-dependent translation activity ([1]; 0.25 mg/ml, pGS-EV71 cells (FIG. 3)) | effect on β-gal activities ([1]; pGS-EV71 transfected cells, 0.01 mg/ml to 0.25 mg/ml (FIG. 3A)) | effect on CAP-dependent translation activity ([2]; 0.25 mg/ml, pGS-EMCV cells (FIG. 4)) | effect on β-gal activities ([2]; pGS-EMCV transfected cells, 0.01 mg/ml to 0.25 mg/ml (FIG. 4A)) | IC50 (EV-71) [µg/mL] | effects on IRES of HCV (IRES of HCV)
NC12CC3CC(CC(C3)C1)C2 [amantadine, 1-Aminoadamantane] | selective inhibition on IRES-dependent translation without affecting CAP-dependent translation | ~55 (≈ 364 µM) | ~80 | 20 | 80 | inhibits SEAP activities | ~45 (≈ 298 µM) | ~80 | 20 | 80 | inhibits SEAP activities | relatively no effect | little or no effect | relatively no effect | little or no effect | ~8820 (≈ 58300 µM) | no effects
Cc1cn([C@H]2C=C[C@@H](CO)O2)c(=O)[nH]c1=O [stavudine] | only amantadine demonstrates selective inhibition |  |  |  |  |  |  |  |  |  |  |  |  |  |  |  | 

— patent US7588885B2, “Use of biocistronic DNA constructs for identifying compounds that inhibit IRES-dependent translation” (Chung Yuan Christian University, priority 2004, dated 2009)
